A value given as a limit tells only on which side of the number the result lay.

One assay has as its target T1, ctdWDR91 (Homo sapiens, UniProt A4D1P6).
T1 sequence (A4D1P6 392-747): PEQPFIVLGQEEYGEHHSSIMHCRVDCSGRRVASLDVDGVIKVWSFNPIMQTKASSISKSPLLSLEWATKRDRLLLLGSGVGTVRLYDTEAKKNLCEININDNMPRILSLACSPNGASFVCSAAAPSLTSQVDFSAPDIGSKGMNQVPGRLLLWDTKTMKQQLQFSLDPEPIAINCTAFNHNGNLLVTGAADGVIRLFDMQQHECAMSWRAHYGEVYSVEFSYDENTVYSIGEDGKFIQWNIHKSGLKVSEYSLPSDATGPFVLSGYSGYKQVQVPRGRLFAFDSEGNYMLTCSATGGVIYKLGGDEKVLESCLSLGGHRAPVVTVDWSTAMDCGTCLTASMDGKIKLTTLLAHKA
Nature of the assay: biochemical.
Conditions: not given
`NC(=O)C1CCCN(c2ccc(C(=O)NC(c3ccc(Cl)cc3)C3CC3)cc2)C1` (stereo not drawn) [DRGG001957a]: the Kd (as a rule, the concentration at which binding is half-saturated) was determined as 16 µM.

With `O=C(N[C@@H]1CCN(C2CC2)[C@H]1c1ccccc1)c1ccc(N2CCC(O)C2)cc1` (stereo partly drawn) [DRGG001958a], the dissociation constant Kd is over 45 µM.

Regarding `O=C(NCC1CCN(c2ccc(Cl)cc2)C1)c1ccc(C2(O)COC2)cc1` (stereo not drawn) [DRGG001959a], the Kd was over 45 µM.

Consider `O=C(NCC1CCN(c2ccc(F)cc2)C1)c1ccc(Cl)cc1` (stereo not drawn) [DRGG001960a], for which the dissociation constant Kd was over 45 µM.

On to `O=C(NC(CCO)c1ccc(Cl)cc1)c1ccc(N2CCC(O)C2)cc1` (stereo not drawn) [DRGG001961a], for which binding was characterised by a dissociation constant (Kd) of 14 µM. This lies in the double-digit micromolar range.

Turning to `O=C(CNC(=O)c1ccc(F)cc1)NC1CCN(c2ccc(Cl)cc2)C1` (stereo not drawn) [DRGG001962a], the Kd is over 45 µM.

`O=C(NC1CCN(c2ccc(Cl)cc2)C1)c1ccc(N2CCC(O)C2)cc1` (stereo not drawn) [DRGG001963a]: the Kd is over 45 µM.

On to `O=C(N[C@@H]1CC2(CCC2)Oc2ccc(F)cc21)c1ccc(N2CCC(O)C2)cc1` (stereo partly drawn) [DRGG001964a], for which the equilibrium dissociation constant (Kd) was over 45 µM.

On to `CC1CCN(c2ccc(C(=O)NCC3(c4ccc(F)cc4)CC3)cc2)C1` (stereo not drawn) [DRGG001965a], for which the Kd was over 45 µM.

`O=C(NC1CCN(c2ccc(Cl)cc2)C1)c1ccc(C2(O)COC2)cc1` (stereo not drawn) [DRGG001966a] yielded a dissociation constant (Kd) of over 45 µM.

In the case of `O=C(NCC1CCN(Cc2ccccc2)C1)c1ccc(N2CCC(O)C2)cc1` (stereo not drawn) [DRGG001968a], the dissociation constant Kd is over 45 µM.

`O=C(NC1(c2ccc(Cl)cc2)COC1)c1ccc(CC2CC2)cc1` [DRGG001970a] showed a Kd of over 45 µM.

For the molecule `O=C(NC1(c2ccc(Cl)cc2)COC1)c1ccc(OCC2CC2)cc1` [DRGG001971a], the dissociation constant (Kd) was over 45 µM.

The molecule `O=C(NC1CCN(c2ccc(Cl)cc2)C1)c1ccc2c(c1)CC2` (stereo not drawn) [DRGG001973a] came in with a Kd of over 45 µM.

In turn, `O=C(NC1CC2(CCC2)Oc2ccccc21)c1ccc(N2CCC(O)C2)cc1` (stereo not drawn) [DRGG001975a] registered an equilibrium dissociation constant (Kd) of over 45 µM.

In turn, `O=C(NC1CCN(c2ccc(F)cc2)C1)c1ccc(Cl)cc1` (stereo not drawn) [DRGG001976a] registered a Kd of over 45 µM.

Molecule `O=C(Nc1cccc2cnccc12)c1ccc(N2CCC(O)C2)cc1` (stereo not drawn) [DRGG001979a] showed a dissociation constant (Kd) of over 45 µM.

Regarding `O=C(NC1(c2ccc(Cl)cc2)CC1)c1ccc(N2CCC(O)C2)cc1` (stereo not drawn) [DRGG001980a], the Kd is over 20 µM.

As to `O=C(NC1CCc2cc(Cl)ccc21)c1ccc(N2CCC(O)C2)cc1` (stereo not drawn) [DRGG001981a], the Kd is over 45 µM.

`O=C(NC1(c2ccc(Cl)cc2)COC1)c1cccc(N2CCCC2)c1` [DRGG001982a]: the Kd was over 45 µM.

As for `O=C(NCC1CCN(c2ccc(Cl)cc2)C1)c1ccc(CN2CCOCC2)cc1` (stereo not drawn) [DRGG001983a], the Kd was over 45 µM.

Molecule `O=C1CCC(c2ccc(C(=O)NC3CCN(c4ccc(Cl)cc4)C3)cc2)N1` (stereo not drawn) [DRGG001984a] registered a dissociation constant (Kd) of over 45 µM.

In turn, `O=C(Nc1cccc2c1CN(C1CC1)C2)c1ccc(N2CCC(O)C2)cc1` (stereo not drawn) [DRGG001985a] showed an equilibrium dissociation constant (Kd) of over 45 µM.

In turn, `O=C(N[C@@H]1C[C@H]1c1ccc(Cl)cc1)c1ccc(N2CCC(O)C2)cc1` (stereo partly drawn) [DRGG001986a] had a dissociation constant (Kd) of over 45 µM.

Molecule `O=C(NCC1CCN(c2ccc(Cl)cc2)C1)c1ccc(C2CCCOC2)cc1` (stereo not drawn) [DRGG001987a] came in with a dissociation constant (Kd) of over 45 µM.

On to `O=C(NC1(c2ccc(Cl)cc2)COC1)c1ccc(N2CCCC2)cc1` [DRGG001988a], for which the dissociation constant Kd is over 45 µM.

Molecule `Cc1nc2sccn2c1C(=O)NC1(c2ccc(Cl)cc2)COC1` [DRGG001989a] registered a Kd of over 45 µM.

In turn, `C[C@@H](NC(=O)c1ccc(N2CCC(O)C2)cc1)c1ccc2c(c1)CCCC2` (stereo partly drawn) [DRGG001990a] registered a dissociation constant (Kd) of over 45 µM.

In turn, `O=C(NC1(c2ccc(Cl)cc2)COC1)C1CCN(c2ccccc2)C1` (stereo not drawn) [DRGG001991a] yielded a dissociation constant Kd of over 45 µM.

Molecule `O=C(NC1CCN(c2ccc(Cl)cc2)C1)c1ccc(CN2CCCC2=O)cc1` (stereo not drawn) [DRGG001992a] showed a Kd of over 45 µM.

In the case of `N#CC1(c2ccc(C(=O)NCC3CCN(c4ccc(Cl)cc4)C3)cc2)CC1` (stereo not drawn) [DRGG001993a], the Kd was over 45 µM.

As to `CC1(c2ccc(C(=O)NC3CCN(c4ccc(F)cc4)C3)cc2)CC1` (stereo not drawn) [DRGG001994a], the equilibrium dissociation constant (Kd) was over 45 µM.

In turn, `O=C(NCC1CCN(c2ccc(F)cc2)C1)C1(c2ccc(Cl)cc2)CCOCC1` (stereo not drawn) [DRGG001995a] displayed a dissociation constant (Kd) of over 45 µM.

Molecule `O=C(NCC1CCN(c2ccc(Cl)cc2)C1)c1cccc(C2(O)COC2)c1` (stereo not drawn) [DRGG001996a] had a Kd of over 45 µM.

Regarding `NC(=O)C1CCCN(c2ccc(C(=O)NC(CCO)c3ccc(Cl)cc3)cc2)C1` (stereo not drawn) [DRGG001997a], the Kd was 22 µM.

In turn, `CC(NC(=O)c1ccc(N2CCC(O)C2)cc1)c1cccc(N2CCCC2)c1` (stereo not drawn) [DRGG001998a] came in with an equilibrium dissociation constant (Kd) of over 45 µM.

`O=C(N[C@@H]1CCO[C@H]1c1ccc(Cl)cc1)c1ccc(N2CCC(O)C2)cc1` (stereo partly drawn) [DRGG002001a] displayed a dissociation constant Kd of over 45 µM.

Molecule `O=C(NCC1CCN(c2ccc(F)cc2)C1)N1CC(O)(c2ccc(Cl)cc2)C1` (stereo not drawn) [DRGG002002a] had a Kd of over 45 µM.

Molecule `CC1(NC(=O)c2ccc(N3CCC(O)C3)cc2)CCN(C(=O)OC(C)(C)C)C1` (stereo not drawn) [DRGG002003a] gave a Kd of over 45 µM.

`O=C(NCC1CCN(c2ccc(Cl)cc2)C1)NC1(c2ccc(F)cc2)CC1` (stereo not drawn) [DRGG002005a] yielded a Kd of over 45 µM.

As to `O=C(CNC(=O)c1ccc(N2CCC(O)C2)cc1)OCc1ccc(Cl)cc1` (stereo not drawn) [DRGG002006a], the Kd was over 45 µM.

`O=C(NCC1CCN(c2ccc(Cl)cc2)C1)N1CC(O)(c2ccc(F)cc2)C1` (stereo not drawn) [DRGG002007a]: the dissociation constant Kd was over 45 µM.

In the case of `O=C(NCC1CCN(c2ccc(F)cc2)C1)NCC1(c2ccc(Cl)cc2)CC1` (stereo not drawn) [DRGG002008a], the Kd is over 45 µM.

As to `CC1CCN(c2ccc(C(=O)NC3(Cc4cccc(F)c4)CC3)cc2)C1` (stereo not drawn) [DRGG002009a], the Kd is over 45 µM.

Molecule `O=C(NOCc1ccc(Cl)cc1)c1ccc(N2CCC(O)C2)cc1` (stereo not drawn) [DRGG002010a] showed a Kd of over 45 µM.

Molecule `O=C(NCc1ccc2nsnc2c1)c1ccc(N2CCC(O)C2)cc1` (stereo not drawn) [DRGG002011a] registered a Kd of 12 µM.

The molecule `O=C(NC1CC1)c1ccc(C(=O)NC2CCN(c3ccc(Cl)cc3)C2)cc1` (stereo not drawn) [DRGG002012a] returned a dissociation constant (Kd) of over 45 µM.

In the case of `O=C(NCCOc1ccc(Cl)cc1)c1ccc(N2CCC(O)C2)cc1` (stereo not drawn) [DRGG002013a], the dissociation constant Kd is over 45 µM.

On to `CC1CCN(c2ccc(C(=O)NC3(Cc4ccc(F)cc4)CC3)cc2)C1` (stereo not drawn) [DRGG002014a], for which the dissociation constant Kd is over 45 µM.

The molecule `O=C(NCC1CCN(c2ccc(F)cc2)C1)NC1(c2ccc(Cl)cc2)CC1` (stereo not drawn) [DRGG002015a] registered a dissociation constant (Kd) of over 45 µM.

In turn, `CC1CCN(c2ccc(C(=O)NC3(c4ccc(F)cc4)CC3)cc2)C1` (stereo not drawn) [DRGG002016a] returned a dissociation constant Kd of over 45 µM.

`NC(=O)c1ccc(C2(C(=O)NCC3CCN(c4ccc(Cl)cc4)C3)CC2)cc1` (stereo not drawn) [DRGG002017a] showed an equilibrium dissociation constant (Kd) of over 45 µM.

The molecule `O=C(NC1(c2ccc(Cl)cc2)COC1)c1ccc2c(c1)NC(=O)C1CCCN21` (stereo not drawn) [DRGG002018a] gave a Kd of over 45 µM.

Molecule `C=CC(=O)N1CCCc2c(C(=O)NC(c3ccc(F)cc3)C3CCCCC3)cccc21` (stereo not drawn) [DRTR002366a] gave a Kd of over 45 µM.

In turn, `C=CC(=O)Nc1ccc(CC(=O)NC2(c3ccccc3)COC2)cc1` [MRTR046653a] came in with a Kd of over 45 µM.

In the next assay the target is T1, ctdWDR91.
Assay: not given
Particulars: at saturation (0-200 uM series), 2 h pre-incubation; covalent.
For `C=CC(=O)N1CCCc2c(C(=O)NC(c3ccc(Cl)cc3)C3CC3)cccc21` (stereo not drawn) [DRTR002365a], the DSF_delta_Tm_ turned out to be 4 °C.

Consider `C=CC(=O)N1CCCc2c(C(=O)NC3(c4ccc(Cl)cc4)COC3)cccc21` [MRTR046654a], for which the DSF_delta_Tm_ came to 4 °C.

These data come from doi:10.1101/2023.08.21.552681v1 (biorxiv, 2023).
